# From patent publication US8324395B2, “Heterocyclic compound and use thereof” (Takeda Pharmaceutical Company Limited, priority 2007, dated 2012)
# Key:
# [1] = tested on: human colon cancer cell HT-29; assay: Colon cancer cell HT-29 growth suppressive action in vitro; assay type: cell-based; conditions: 72 h, HT-29 cells, 3 days culture, SRB staining of cell protein
# Procedure: A cell suspension (100 μL, 3,000 cells/well) of human colon cancer cell HT-29 (purchased from ATCC) was plated in a 96-well plate, and the cells were cultured at 37° C. in a 5% carbon dioxide gas incubator. The next day, 2-fold serial dilution of each test compound solution (diluted from maximum concentration 20 μM) (100 μL) was added, and the cells were cultured for 3 days. The culture medium containing the test compound was removed, and the cells were washed with phosphate buffer (PBS). A 50% trichloroacetic acid solution was added to the final concentration of 10% (v/v), and the mixture was stood overnight at 4° C., whereby the cells were fixed to the plate. Then, a dye SRB 0.4% (w/v) solution (dissolved in 1% acetic acid) was added at 50 μl/well, whereby the cell protein was fixed and stained (Skehan et al., Journal Of National Cancer Institute, vol. 82, pp. 1107-1112, 1990). The cells were washed 3 times with 1% acetic acid solution (200 μL/well), and 100 μL of an extract (10 mM Tris buffer) was added to extract the dye. The absorbance at an absorption wavelength […] was measured, and cell amount was measured as a protein amount. Taking the protein amount of the control group free of the test compound solution as 100%, the proportion of the residual protein amount of each treatment group was determined and the concentration of the compound necessary for suppressing the residual cell amount to 50% of the control (IC50 value) was calculated.
# BRAF (V600E) kinase = biological target: T1, BRAF (V600E) kinase (Homo sapiens, UniProt P15056, V600E); assay: Determination of BRAF (V600E) kinase inhibitory activity; assay type: biochemical; conditions: 1.0 μM test compound; BRAF (V600E) enzyme, GST-MEK1 (K96R) substrate, [γ-32P]ATP; read-out: Inhibitory rate (%) at 1.0 μM
# T1 construct: Flag (N); made in house; host or cells: SF-21 insect cells, recombinant baculovirus BAC-V600E
# Procedure: Human BRAF gene was cloned by PCR using human Testis cDNA library (Clontech) as a template. The primer used for PCR was prepared from base sequence (Genbank Accession No.: NM_004333) information of BRAF gene by adding a base sequence encoding flag peptide and a recognition sequence of the restriction enzyme to area encoding the BRAF kinase domain region, so that the protein contains an N-terminal. Flag. The primer base sequence is shown below.
# The PCR reaction was conducted using Pyrobest (Takara Shuzo Co., Ltd). The obtained PCR product was electrophoresed on agarose gel (1%), the DNA fragment amplified by PCR was recovered from the gel, and then digested with restriction enzymes EcoRI and SalI. The DNA treated with the restriction enzymes was electrophoresed on agarose gel (1%), and the obtained DNA fragment was recovered. The recovered DNA fragment was ligated to plasmid pFASTBAC1 (Invitrogen) digested with restriction enzymes EcoRI and SalI to give expression plasmid pFB-BRAF, and the base sequence of the insert fragment was confirmed. In addition, mutation was introduced into V600E using a Quick change Site Directed Mutagenesis kit (Stratagene). The base sequences of the primers used are shown in the following.
# The obtained plasmid was sequenced to confirm the introduction of mutation into V600E. The DNA was digested with restriction enzymes EcoRI and SalI, DNA treated with the restriction enzymes was electrophoresed on agarose gel (1%), and the obtained DNA fragment was recovered. The recovered DNA fragment was ligated to plasmid pFASTBAC1 (Invitrogen) digested with restriction enzymes EcoRI and SalI to give expression plasmid pFB-V600E.
# Using BAC-TO-BAC Baculovirus Expression System (Invitrogen), virus stock BAC-V600E of recombinant baculovirus was prepared.
# SF-21 cells were sown at 1×10^6 cells/mL to Sf-900II SFM medium (1 L, Invitrogen) containing 10% fetal bovine serum (Trace), 50 mg/L Gentamicin (Invitrogen) and 0.1% Pluronic F-68 (Invitrogen), and shaking culture was performed using a 2 L volume Erlenmeyer flask at 27° C., 100 rpm. After culturing for 24 hr, recombinant baculovirus BAC-V600E (13.4 mL) was added to the mixture, and the mixture was further cultured for 3 days. The culture medium was centrifuged at 2,000 rpm for 5 min to give virus-infected cells. The infected cells were washed with a phosphate buffered saline (Invitrogen), centrifuged under the same conditions, and the cells were preserved at −80° C. The cryopreserved cells were thawed in ice, suspended in buffer A (50 mM Tris buffer (30 mL, pH 7.4) containing 20% glycerol, 0.15 M NaCl) supplemented with Complete Protease Inhibitor (Boehringer), and ruptured 3 times with a Polytron homogenizer (Kinematica) at 20,000 rpm for 30 sec. The ruptured medium was clarified by centrifugation at 40,000 rpm for 30 min and filtered with a 0.45 μm filter. The filtrate was passed through a column packed with Anti-FLAG M2 Affinity Gel (4 mL, Sigma) at a flow rate of about 0.5 mL/min. The column was washed with buffer A, and eluted with buffer A containing 100 μg/mL of FLAG peptide. The buffer of this eluate was exchanged using NAP25 column (Amersham Bioscience) equilibrated with buffer A and the fractions were cryopreserved at −80° C.
# A test compound (2.5 μL) dissolved in dimethyl sulfoxide (DMSO) was added to 37.5 μL of a reaction mixture (25 mM HEPES (pH 7.5), 10 mM magnesium acetate, 1 mM dithiothreitol) containing BRAF (V600E) enzyme (30 ng) and recombinant type protein GST-MEK1 (K96R) 250 ng, and the mixture was incubated at room temperature for 10 min. ATP solution (10 μL, 2.5 μM ATP, 0.1 μCi [γ-^32P]ATP) was added to the obtained mixture, and the mixture was reacted at room temperature for 20 min. The reaction was quenched by adding 50 μL of ice-cooled. 20% trichloroacetic acid (Wako Pure Chemical Industries, Ltd.) to the reaction mixture. […]
# T1 sequence (P15056 457-717 V600E limits assumed): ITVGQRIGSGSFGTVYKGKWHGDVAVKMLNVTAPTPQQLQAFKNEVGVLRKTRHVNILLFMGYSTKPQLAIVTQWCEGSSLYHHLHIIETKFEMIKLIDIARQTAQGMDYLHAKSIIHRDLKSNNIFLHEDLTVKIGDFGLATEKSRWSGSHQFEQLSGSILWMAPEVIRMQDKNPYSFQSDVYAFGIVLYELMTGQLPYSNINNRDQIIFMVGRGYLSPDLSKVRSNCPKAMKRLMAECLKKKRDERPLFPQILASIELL
IC50 [1] [nM],inhibition at 1 µM (BRAF (V600E) kinase) [%],Compound
< 500,,"CC(=O)Nc1nc2ccc(Oc3cccc(NC(=O)c4cccc(C(C)(C)C#N)c4Cl)c3)cc2s1 [Example A41, N-(3-{[2-(acetylamino)-1,3-benzothiazol-6-yl]oxy}phenyl)-2-chloro-3-(1-cyano-1-methylethyl)benzamide]"
< 500,,"O=C(Nc1cccc(Oc2ccc3nc(NC(=O)C4CC4)sc3c2)c1)c1cccc(C(F)(F)F)c1 [Example A2, N-[3-({2-[(cyclopropylcarbonyl)amino]-1,3-benzothiazol-6-yl}oxy)phenyl]-3-(trifluoromethyl)benzamide]"
< 500,100,"CC(C)(C#N)c1cccc(C(=O)Nc2cccc(Oc3ccc4nc(NC(=O)C5CC5)sc4c3)c2)c1 [Example A12, 3-(1-cyano-1-methylethyl)-N-[3-({2-[(cyclopropylcarbonyl)amino]-1,3-benzothiazol-6-yl}oxy)phenyl]benzamide]"
< 500,,"COc1ccc(NC(=O)c2cccc(C(C)(C)C#N)c2)cc1Oc1ccc2nc(NC(=O)CN3CCN(C)CC3)sc2c1 [Example A23, 3-(1-cyano-1-methylethyl)-N-{4-methoxy-3-[(2-{[(4-methylpiperazin-1-yl)acetyl]amino}-1,3-benzothiazol-6-yl)oxy]phenyl}benzamide]"
